In ChEMBL document CHEMBL1687703, “Modification at the Lipophilic Domain of RXR Agonists Differentially Influences Activation of RXR Heterodimers” (ACS Med Chem Lett, 2010):
Activity calls are given as the source filed them. The rule behind the calls is not given here.

How the values were obtained:
[1] = target: T1, Retinoic acid receptor RXR-alpha (Homo sapiens, UniProt P19793); test: Agonist activity at RXRalpha transfected in […] COS1 cells after 18 hrs by luciferase reporter gene transactivation assay; format: functional, cell-based, COS-1
T1 sequence (P19793 whole entry): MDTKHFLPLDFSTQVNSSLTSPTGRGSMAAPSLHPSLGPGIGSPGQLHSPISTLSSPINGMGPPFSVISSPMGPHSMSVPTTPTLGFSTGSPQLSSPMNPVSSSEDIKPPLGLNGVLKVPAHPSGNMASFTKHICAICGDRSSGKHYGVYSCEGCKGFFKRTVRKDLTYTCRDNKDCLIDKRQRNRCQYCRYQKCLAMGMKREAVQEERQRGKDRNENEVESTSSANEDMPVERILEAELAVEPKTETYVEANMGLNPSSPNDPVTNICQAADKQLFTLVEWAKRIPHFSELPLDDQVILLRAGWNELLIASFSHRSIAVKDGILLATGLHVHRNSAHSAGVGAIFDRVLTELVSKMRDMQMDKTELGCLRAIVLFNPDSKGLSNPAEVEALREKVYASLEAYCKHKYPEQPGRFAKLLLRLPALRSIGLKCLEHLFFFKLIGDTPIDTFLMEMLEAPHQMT

[2] = target: T2, Oxysterols receptor LXR-alpha (Homo sapiens) (UniProt Q13133); test: Agonist activity at LXRalpha transfected in […] COS1 cells after 18 hrs by luciferase reporter gene transactivation assay; format: functional, cell-based; conditions: COS-1
T2 sequence (whole entry): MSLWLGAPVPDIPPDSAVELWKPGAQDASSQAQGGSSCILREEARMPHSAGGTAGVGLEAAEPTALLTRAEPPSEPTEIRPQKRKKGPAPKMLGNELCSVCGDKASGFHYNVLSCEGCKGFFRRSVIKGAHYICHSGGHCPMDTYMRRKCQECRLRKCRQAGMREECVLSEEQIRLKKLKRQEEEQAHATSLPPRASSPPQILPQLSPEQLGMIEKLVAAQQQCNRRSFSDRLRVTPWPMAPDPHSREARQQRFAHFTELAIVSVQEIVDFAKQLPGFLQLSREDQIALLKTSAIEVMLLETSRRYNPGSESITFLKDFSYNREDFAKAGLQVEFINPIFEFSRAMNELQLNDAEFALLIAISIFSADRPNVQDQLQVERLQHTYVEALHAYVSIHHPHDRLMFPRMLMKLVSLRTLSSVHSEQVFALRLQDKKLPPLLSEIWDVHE

[3] = target: Retinoic acid receptor RXR-alpha/oxysterols receptor LXR-alpha (Homo sapiens) (UniProt P19793+Q13133); test: Agonist activity at LXRalpha/RXRalpha transfected in […] COS1 cells at 10^-7 to 10^-6 M after 18 hrs by luciferase reporter gene transactivation assay; format: functional, cell-based; conditions: COS-1

| Structure (SMILES) | EC50 [1] | Activity [2] | Activity [3] |
| --- | --- | --- | --- |
| CCCCCCOc1cc(N(CC)c2ccc(C(=O)O)cn2)ccc1C(C)C | 280 nM | – | – |
| CCCOc1cc(N(CC)c2ccc(C(=O)O)cn2)ccc1C(C)C | 450 nM | – | – |
| CCN(c1ccc(C(C)C)c(OCC(C)C)c1)c1ccc(C(=O)O)cn1 | – | Active | – |
| CCN(c1ccc(C(C)C)c(OCCc2ccccc2)c1)c1ccc(C(=O)O)cn1 | 330 nM | – | – |
| CCN(c1ccc2c(c1)C(C)(C)CCC2(C)C)c1ccc(C(=O)O)cn1 | – | Active | – |
| C=C(C)COc1cc(N(CC)c2ccc(C(=O)O)cn2)ccc1C(C)C | 110 nM | – | – |
| CCN(c1ccc(C(C)C)c(OCc2ccccc2)c1)c1ccc(C(=O)O)cn1 | 160 nM | – | Active |
| CCN(c1ccc(C(C)C)c(OCCCc2ccccc2)c1)c1ccc(C(=O)O)cn1 | 820 nM | – | – |
| CCN(c1ccc(C(C)C)c(OCC2CC2)c1)c1ccc(C(=O)O)cn1 | 290 nM | – | Active |
| CCN(c1ccc(C(C)C)c(OC(C)C)c1)c1ccc(C(=O)O)cn1 | 66 nM | – | – |
| CCCCCOc1cc(N(CC)c2ccc(C(=O)O)cn2)ccc1C(C)C | 160 nM | – | Active |
| CCCCOc1cc(N(CC)c2ccc(C(=O)O)cn2)ccc1C(C)C | 180 nM | – | – |
| CCN(c1ccc(C(C)C)c(OCC=C(C)C)c1)c1ccc(C(=O)O)cn1 | 160 nM | – | – |
| CCN(c1ccc(C(C)C)c(OCC(F)(F)F)c1)c1ccc(C(=O)O)cn1 | 160 nM | – | – |
